# Test results: patent US6713077B1, “Control of shoot/foliar feeding pests with pesticide seed treatments” (Monsanto Technology, LLC, priority 1999, dated 2004)
# Where two headings read alike, the source gives them in different places.
# Assays:
# black cutworm larvae [1] = assay: Example 8: stand reduction of corn by black cutworm, RAZE versus WARRIOR T seed treatment; type: in vivo; conditions: band w/ incorporation 30 (grams/hectare)
# Method: A lambda-cyhalothrin seed treatment formulation was prepared from WARRIOR T 11.4 CS formulation (Zeneca Ag Products, Wilmington, Del.), as described in Example 1. Also, a tefluthrin seed treatment formulation was prepared from RAZE […] formulation (available from Wilbur-Ellis Co.), by the same method. Each of these seed treatment formulations were applied for one minute at room temperature to twenty-five grams of Pioneer corn seed (Cultivar PN3394) in a rotostatic seed treater at the treatment rates noted in Table 9, below. The treated seeds were allowed to sit uncapped for four to twenty-four hours before planting.
# Treated and untreated seeds (Pioneer hybrid PN3394) were planted in a soil mix consisting of Dupo silt loam, 30% Perlite, 20% coarse sand (WB-10 grade) in six groups of tubs (20 in. L×15 in. W×8 in. D). Twelve seeds were planted per tub and three tubs were planted for each treatment regimen. Soil applications of FORCE 3GR, which contains 3% tefluthrin as the active ingredient, were used for two sets of tubs containing untreated seeds. […]
# (§1) The corn plants were infested at 12 DAP, which corresponds to late growth stage 11 by placing two black cutworm larvae at 3/4 instar on the soil surface near the base of the plant. […] The percent stand reduction due to plant cutting was calculated by dividing the number of cut plants into the number of plants present at infestation.
# [2] = cited from earlier work
# black cutworm larvae [3] = assay: Example 5: stand reduction of corn by black cutworm, lambda cyhalothrin or tefluthrin seed treatment; type: in vivo; conditions: band w/ incorporation 30 (grams/hectare)
# Method: A lambda-cyhalothrin seed treatment formulation was prepared from the WARRIOR T insecticide and corn seed was prepared and treated as described in Example 1, except that the treatment levels were 125, 228 and 358 gm active ingredient/100 kg seed. A tefluthrin seed treatment formulation was also prepared from RAZE 2.5 FS, which contains tefluthrin as the active ingredient, into water as a carrier. Treated and untreated seeds were planted and cultivated as described as described in Example 1. Again, FORCE 3GR was applied and incorporated into a 5 inch band on the soil surface at the time of planting. The tubs were overhead irrigated until the plants were infested with black cutworm larvae.
# (§2) The corn plants were infested at 12 DAP, as described in Example 1. Plants were rated at 10 days after infestation (DAI) for the number of cut plants. The percent stand reduction due to plant cutting was calculated by dividing the number of cut plants into the number of plants present at infestation.
# black cutworm larvae [4] = assay: Example 7: stand reduction of corn by black cutworm, bifenthrin, lambda-cyhalothrin and tefluthrin seed treatment; type: in vivo; conditions: seed treatment 209 gm AI/100 kg of seed
# Method: A lambda-cyhalothrin seed treatment formulation was prepared from WARRIOR T 11.4 CS formulation (Zeneca Ag Products, Wilmington, Del.), as described in Example 1. A seed treatment formulation was also prepared by the method as described in Example 1, except from CAPTURE® 2 EC (bifenthrin; available from FMC). Also, a seed treatment formulation was prepared from RAZE 2.5 FS formulation (available from Wilbur-Ellis Co.), containing 26.8% tefluthrin. Each of these seed treatment formulations were applied for one minute at room temperature to twenty-five grams of Pioneer corn seed (Cultivar PN3394) in a rotostatic seed treater at the treatment rates noted in Table 8, below. The treated seeds were allowed to sit uncapped for four to twenty-four hours before planting.
# Treated and untreated seeds (Pioneer hybrid PN3394) were planted in a soil mix consisting of Dupo silt loam, 30% Perlite, 20% coarse sand (WB-10 grade) in six groups of tubs (20 in. L×15 in. W×8 in. D). Twelve seeds were planted per tub and three tubs were planted for each treatment regimen. […]
# as §1
# [5] = cited from earlier work; remark: listed apart in the source
# black cutworm larvae [6] = assay: Example 4: stand reduction of corn by black cutworm in three soil types; type: in vivo; conditions: seed treatment 250 gm AI/100 kg of seed
# Method: A lambda-cyhalothrin seed treatment formulation was prepared from WARRIOR T insecticide and corn seed was prepared and treated as described in Example 1, except that the treatment level was 250 gm active ingredient/100 kg seed. Treated and untreated seeds were planted and cultivated as described as described in Example 1. FORCE 3GR was applied and incorporated into a 5 inch band on the soil surface at the time of planting. The untreated seed—with and without tefluthrin banding—and the treated seed were planted in three different soil types. […] The tubs were overhead irrigated until the plants were infested with black cutworm larvae.
# as §2
# black cutworm larvae [7] = assay: Example 2: stand reduction of corn by black cutworm, tub test; type: in vivo
# Method: A lambda-cyhalothrin seed treatment formulation was prepared from the WARRIOR T insecticide and corn seed was prepared and treated as described in Example 1, except that the treatment levels were 88, 185 and 381 gm active ingredient/100 kg seed. Treated and untreated seeds were planted and cultivated as described as described in Example 1. Again, FORCE 3GR was applied either in-furrow or incorporated into a 5 inch band on the soil surface at the time of planting. The tubs were overhead irrigated until the plants were infested with black cutworm larvae.
# as §2
compound,measurement,setting,value
"Cc1c(F)c(F)c(COC(=O)[C@@H]2[C@H](/C=C(\Cl)C(F)(F)F)C2(C)C)c(F)c1F (racemic) [Tefluthrin, (2,3,5,6-tetrafluoro-4-methylphenyl)-methyl-(1 alpha, 3 alpha)-(Z)-(±)-3-(2-chloro-3,3,3-trifluoro-1-propenyl)-2,2-dimethylcyclopropanecarboxylate]","STAND REDUCTION (%, 10 days after infestation)",black cutworm larvae [1],total protection
same,Vapor pressure,[2]; 20° C.,8 mPa
same,"STAND REDUCTION (%, 10 days after infestation)",black cutworm larvae [3],total protection
"Cc1c(COC(=O)C2C(C=C(Cl)C(F)(F)F)C2(C)C)cccc1-c1ccccc1 (centres unmarked) [Bifenthrin, (2-methyl [1,1′-biphenyl]-3-yl)methyl 3-(2-chloro-3,3,3-trifluoro-1-propenyl)-2,2-dimethyl-cyclopropanecarboxylate]","STAND REDUCTION (%, 10 days after infestation)",black cutworm larvae [4],total protection
same,Vapor pressure,[2]; 25° C.,0.024 mPa
same,Water solubility,[5]; temperature not given,0.1 mg/L
"CC1(C)[C@H](C(=O)O[C@H](C#N)c2cccc(Oc3ccccc3)c2)[C@@H]1/C=C(\Cl)C(F)(F)F [Lambda cyhalothrin, [1 alpha (s), 3 alpha(z)]-cyano(3-phenoxyphenyl)methyl-3-(2-chloro-3,3,3-trifluoro-1-propenyl)-2,2-dimethylcyclopropane carboxylate]","STAND REDUCTION (%, 10 days after infestation)",black cutworm larvae [6]; SOIL TYPE I,80.1%
same,"STAND REDUCTION (%, 10 days after infestation)",black cutworm larvae [6]; SOIL TYPE II,39.8%
same,"STAND REDUCTION (%, 10 days after infestation)",black cutworm larvae [6]; SOIL TYPE III,72.4%
same,"STAND REDUCTION (%, 10 days after infestation)",black cutworm larvae [7]; seed treatment 88 gm AI/100 kg of seed,19.4%
same,"STAND REDUCTION (%, 10 days after infestation)",black cutworm larvae [7]; seed treatment 381 gm AI/100 kg of seed,total protection
same,Vapor pressure,[2]; temperature not given,2 E-4 mPa
"CC(C)=CC1C(C(=O)OCc2cccc(Oc3ccccc3)c2)C1(C)C (stereo not drawn) [Phenothrin, 3-phenoxybenzyl-d,l-cistrans 2,2-dimethyl-3-(2-methylpropenyl)cyclopropane carboxylate]",Vapor pressure,[2]; 21.4° C.,1.9 E-2 mPa
same,Water solubility,[5]; 25° C.,<9.7 μg/l (25° C.)
